pEC50: −log10 of the molar value.
Key:
[1] = In vitro effective concentration against beta amyloid protein 40 in ELISA
[2] = In vitro effective concentration against beta amyloid protein 42 in ELISA
[3] = In vitro inhibition of amyloid precursor protein 695 activity in CHO cells expressing human APP

Structure (SMILES) | pEC50 [1] | pEC50 [2] | pEC50 [3]
CCOC(=O)N1CCC(c2ccccc2)(S(=O)(=O)c2ccc(OC)cc2)CC1 [4-(4-Methoxy-benzenesulfonyl)-4-phenyl-piperidine-1-carboxylic acid ethyl ester] | 4.01 |  | 
CCOC(=O)N1CCC(c2ccccc2C)(S(=O)(=O)c2ccc(OC)cc2)CC1 [4-(4-Methoxy-benzenesulfonyl)-4-o-tolyl-piperidine-1-carboxylic acid ethyl ester] | 4.61 |  | 
CCOC(=O)N1CCC(c2ccccc2OC)(S(=O)(=O)c2ccccc2)CC1 [4-Benzenesulfonyl-4-(2-methoxy-phenyl)-piperidine-1-carboxylic acid ethyl ester] | 4.20 |  | 
CCOC(=O)N1CCC(c2ccccc2)(S(=O)(=O)c2ccc(Cl)cc2)CC1 [ethyl 4-[(4-chlorobenzene)sulfonyl]-4-phenylpiperidine-1-carboxylate] | 4.91 | 4.68 | 
CCOC(=O)N1CCC(c2ccccc2C)(S(=O)(=O)c2ccc(Cl)cc2)CC1 [4-(4-Chloro-benzenesulfonyl)-4-o-tolyl-piperidine-1-carboxylic acid ethyl ester] | 5.57 | 5.43 | 
CCOC(=O)N1CCC(c2ccccc2OC)(S(=O)(=O)c2ccc(Cl)cc2)CC1 [ethyl 4-(4-chlorophenylsulfonyl)-4-(2-methoxyphenyl)piperidine-1-carboxylate] | 5.46 | 5.30 | 5.99
CCOC(=O)N1CCC(c2ccccc2OC)(S(=O)(=O)c2ccc(OC)cc2)CC1 [4-(4-Methoxy-benzenesulfonyl)-4-(2-methoxy-phenyl)-piperidine-1-carboxylic acid ethyl ester] | 4.30 |  | 
CCCNC(=O)OC[C@@H](C)N(c1cc(Cl)ccc1CO)S(=O)(=O)c1ccc(Cl)cc1 [BMCL18464 Compound 14] | 7.00 |  | 
CCOC(=O)N1CCC(c2ccccc2C)(S(=O)(=O)c2ccccc2)CC1 [4-Benzenesulfonyl-4-o-tolyl-piperidine-1-carboxylic acid ethyl ester] | 4.31 |  | 

Source: BindingDB's records for doi:10.1016/j.bmcl.2005.02.006 (Wyeth Research, 2005)
